Values of other authors in paper PMC12652113, “Fluorescent Albumin-Binding N-Propylbenzene Indolenine-Based Squaraines as Potential Candidates for Prostate Cancer Photodynamic Therapy Photosensitizers” (International Journal of Molecular Sciences, 2025).

Conditions: in dimethylformamide; reference value used for the calculation; cited from earlier work

In the case of `[Zn+2].c1ccc2c(c1)-c1nc-2nc2[n-]c(nc3nc([n-]c4nc(n1)-c1ccccc1-4)-c1ccccc1-3)c1ccccc21` [Zinc phthalocyanine, zinc phthalocyanine], the “fluorescence quantum yield (ΦF) of the reference standard” value is listed as 0.17.
